Measured values from patent US20100285959A1, “HERBICIDAL MIXTURES” (priority 2006, published 2010).

Experiments:
[1] = test system: Pennsylvania smartweed (POLPY); assay: Test 1 field trial, preemergence; type: in vivo, Polygonum pensylvanicum
From the text: Corn seeds (hybrid ‘Pioneer 34N43’) were planted in mid spring season, 3.8 cm deep in a silt loam soil having 4.6% organic matter and a pH of 6. Plots were 10.7 m long by 1.5 m wide with rows spaced 76 cm apart. Seeds were spaced 18 cm apart within the rows. The field was managed using conventional tillage practices. […] Results are summarized in Table 1 and are the means of the three replicates. […] Colby's Equation (Colby, S. R. “Calculating Synergistic and Antagonistic Responses of Herbicide Combinations,” Weeds, 15(1), pp 20-22 (1967)) calculates the expected additive effect of herbicidal mixtures, and for two active ingredients is of the form:
Pa+b=Pa+Pb−(PaPb/100) • wherein Pa+b is the percentage effect of the mixture expected from additive contribution of the individual components, • Pa is the observed percentage effect of the first active ingredient at the same use rate as in the mixture, and • Pb is the observed percentage effect of the second active ingredient at the same use rate as in the mixture.

velvetleaf (ABUTH) = assay: Test 5 field trial, postemergence; type: in vivo, Abutilon theophrasti
From the text: (§1) Corn seeds (hybrid ‘Pioneer 38H69’) were planted in mid spring season, 5.1 cm deep in a silty clay loam soil having 3% organic matter and a pH of 6.5. Plots were 9.1 m long by 3.0 m wide with rows spaced 76 cm apart. The field was managed using conventional tillage practices. […] All treatments included a surfactant except glufosinate treatments, both alone and in combination. […] Results are summarized in Table 5 and are the means of the three replicates.

common ragweed (AMBEL) = assay: Test 5 field trial, postemergence; type: in vivo, Ambrosia artemisiifolia
From the text: as §1

[2] = test system: common lambsquarters (CHEAL); assay: Test 5 field trial, postemergence; type: in vivo, Chenopodium album
From the text: as §1

large crabgrass (DIGSA) = assay: Test 5 field trial, postemergence; type: in vivo, Digitaria sanguinalis
From the text: as §1

[3] = test system: common lambsquarters (CHEAL); assay: Test 6 field trial, postemergence; type: in vivo, Chenopodium album
From the text: (§2) Corn seeds (hybrid ‘Pioneer 35Y62’) were planted in mid spring season, 3.8 cm deep in a silt loam soil having 4% organic matter and a pH of 5.8. Plots were 10.7 m long by 1.5 m wide with rows spaced 76 cm apart. Seeds were spaced 18 cm apart within the rows. The field was managed using conventional tillage practices. […] All treatments included a surfactant except glufosinate treatments, both alone and in combination. […] Results are summarized in Table 6 and are the means of the three replicates.

yellow foxtail (SETLU) = assay: Test 6 field trial, postemergence; type: in vivo, Setaria glauca
From the text: as §2

[4] = test system: common lambsquarters (CHEAL); assay: Test 8 field trial, preemergence; type: in vivo, Chenopodium album
From the text: (§3) Corn seeds (hybrid ‘Pioneer 31G96’) were planted in mid spring season, 3.8 cm deep in a clay loam soil having 2% organic matter and a pH of 6.6. Plots were 6.1 m long by 3.0 m wide with rows spaced 76 cm apart. Seeds were spaced 15 cm apart within the rows. The field was managed using conventional tillage practices. […] A few of the weed species could not be evaluated at every timing. […] Results are the means of the three replicates.

[5] = test system: Pennsylvania smartweed (POLPY); assay: Test 8 field trial, preemergence; type: in vivo, Polygonum pensylvanicum
From the text: as §3

giant foxtail (SETFA) = assay: Test 10 field trial, preemergence; type: in vivo, Setaria faberi; settings: 28 DAA
From the text: Corn seeds (hybrid ‘Pioneer 33P65 RR’) were planted in mid spring season, 2.5 cm deep in a silt loam soil. Plots were 9.1 m long by 3.0 m wide with rows spaced 76 cm apart. The field was managed using conventional tillage practices. […] Results are the means of the three replicates.

common blackjack (BIDPI) = assay: Test 11 field trial, preemergence; type: in vivo, Bidens pilosa; design: scale not given here; settings: alone or + atrazine 1500 or metolachlor 2500
From the text: (§4) Corn seeds (hybrid ‘Pioneer 3041’) were planted in mid spring season, 5 cm deep in a clay soil having 2.6% organic matter and a pH of 5.6. Plots were 8 m long by 1.5 m wide with rows spaced 80 cm apart. Seeds were spaced 15 cm apart within the rows. The field was managed using conventional tillage practices. […] Treatments consisted of Compound 2 or
(§5) Goosegrass was not evaluated 16 or 91 days after application.

[6] = test system: Ipomoea grandiflora (IPOGF); assay: Test 11 field trial, preemergence; type: in vivo
From the text: as §4, §5

arrowleaf sida (SIDRH) = assay: Test 11 field trial, preemergence; type: in vivo, Sida rhombifolia
From the text: as §4, §5

[7] = 56 DAA, g a.i./ha: Cpd 2 50, S-Metolachlor 1870
[8] = 56 DAA, g a.i./ha: Cpd 2 100, Atrazine 1680, S-Metolachlor 1870
[9] = 56 DAA, g a.i./ha: Cpd 2 150, S-Metolachlor 1870
[10] = 16 DAA, Cpd 2 30 g a.i./ha alone or with glufosinate 470 or glyphosate 1120
[11] = 16 DAA, Cpd 2 60 g a.i./ha alone or with atrazine 1120, glufosinate 470 or glyphosate 1120
[12] = 31 DAA, Cpd 2 30 g a.i./ha alone or with glufosinate 470 or glyphosate 1120
[13] = 31 DAA, Cpd 2 60 g a.i./ha alone or with atrazine 1120, glufosinate 470 or glyphosate 1120
[14] = 16 DAA, Cpd 2/Cpd 1 at 62 g a.i./ha, alone or + atrazine 1500 or metolachlor 2500
[15] = 16 DAA, Cpd 2/Cpd 1 at 125 g a.i./ha, alone or + atrazine 1500 or metolachlor 2500
[16] = 30 DAA, Cpd 2/Cpd 1 at 62 g a.i./ha, alone or + atrazine 1500 or metolachlor 2500
[17] = 30 DAA, Cpd 2/Cpd 1 at 125 g a.i./ha, alone or + atrazine 1500 or metolachlor 2500
[18] = 44 DAA, Cpd 2/Cpd 1 at 62 g a.i./ha, alone or + atrazine 1500 or metolachlor 2500
[19] = 44 DAA, Cpd 2/Cpd 1 at 125 g a.i./ha, alone or + atrazine 1500 or metolachlor 2500
[20] = 62 DAA, 62 g a.i./ha, scale 0 to 100
[21] = 62 DAA, 125 g a.i./ha, scale 0 to 100
[22] = 91 DAA, 62 g a.i./ha, scale 0 to 100
[23] = 91 DAA, 125 g a.i./ha, scale 0 to 100

COC(=O)c1nc(C2CC2)nc(N)c1Cl [Compound 2, methyl 6-amino-5-chloro-2-cyclopropyl-4-pyrimidinecarboxylate]
POLPY Obs ([1]; 28 DAA, g a.i./ha: Cpd 2 50, S-Metolachlor 1870): 0
POLPY Obs ([1]; 28 DAA, g a.i./ha: Cpd 2 100, Atrazine 1680, S-Metolachlor 1870): 0
POLPY Obs ([1]; 28 DAA, g a.i./ha: Cpd 2 150, S-Metolachlor 1870): 0
POLPY Obs [1, 7]: 0
POLPY Obs [1, 8]: 0
POLPY Obs [1, 9]: 0
ABUTH Obs (velvetleaf (ABUTH); [10]): 76%
ABUTH Obs (velvetleaf (ABUTH); [11]): 81%
ABUTH Obs (velvetleaf (ABUTH); [12]): 77%
ABUTH Obs (velvetleaf (ABUTH); [13]): 82%
AMBEL Obs (common ragweed (AMBEL); [10]): 85%
AMBEL Obs (common ragweed (AMBEL); [11]): 95%
AMBEL Obs (common ragweed (AMBEL); [12]): 83%
AMBEL Obs (common ragweed (AMBEL); [13]): 99%
CHEAL Obs [2, 10]: 83%
CHEAL Obs [2, 11]: 87%
CHEAL Obs [2, 12]: 82%
CHEAL Obs [2, 13]: 99%
DIGSA Obs (large crabgrass (DIGSA); [10]): 0%
DIGSA Obs (large crabgrass (DIGSA); [11]): 0%
DIGSA Obs (large crabgrass (DIGSA); [12]): 0%
DIGSA Obs (large crabgrass (DIGSA); [13]): 2%
CHEAL Obs ([3]; 14 DAA, 30 g a.i./ha): 100%
CHEAL Obs ([3]; 14 DAA, 60 g a.i./ha): 100%
CHEAL Obs ([3]; 28 DAA, 30 g a.i./ha): 100%
CHEAL Obs ([3]; 28 DAA, 60 g a.i./ha): 100%
SETLU Obs (yellow foxtail (SETLU); 14 DAA, 30 g a.i./ha): 0%
SETLU Obs (yellow foxtail (SETLU); 14 DAA, 60 g a.i./ha): 0%
SETLU Obs (yellow foxtail (SETLU); 28 DAA, 30 g a.i./ha): 0%
SETLU Obs (yellow foxtail (SETLU); 28 DAA, 60 g a.i./ha): 0%
CHEAL Obs ([4]; 19 DAA, g a.i./ha: Cpd 2 50, S-Metolachlor 1870): 75%
CHEAL Obs ([4]; 19 DAA, g a.i./ha: Cpd 2 100, Atrazine 1680, S-Metolachlor 1870): 100%
CHEAL Obs ([4]; 19 DAA, g a.i./ha: Cpd 2 150, S-Metolachlor 1870): 100%
CHEAL Obs [4, 7]: 68%
CHEAL Obs [4, 8]: 100%
CHEAL Obs [4, 9]: 100%
POLPY Obs ([5]; 19 DAA, g a.i./ha: Cpd 2 50): 28%
POLPY Obs ([5]; 19 DAA, g a.i./ha: Cpd 2 100): 60%
POLPY Obs ([5]; 19 DAA, g a.i./ha: Cpd 2 150): 65%
POLPY Obs ([5]; 29 DAA, g a.i./ha: Cpd 2 50, S-Metolachlor 1870): 30%
POLPY Obs ([5]; 29 DAA, g a.i./ha: Cpd 2 100, Atrazine 1680, S-Metolachlor 1870): 50%
POLPY Obs ([5]; 29 DAA, g a.i./ha: Cpd 2 150, S-Metolachlor 1870): 70%
POLPY Obs ([5]; 56 DAA, g a.i./ha: Cpd 2 50): 55%
POLPY Obs ([5]; 56 DAA, g a.i./ha: Cpd 2 100, Atrazine 1680): 75%
POLPY Obs ([5]; 56 DAA, g a.i./ha: Cpd 2 150): 95%
SETFA Obs (giant foxtail (SETFA); g a.i./ha: Cpd 2 50, S-Metolachlor 1870): 13%
SETFA Obs (giant foxtail (SETFA); g a.i./ha: Cpd 2 100, Atrazine 1680, S-Metolachlor 1870): 7%
SETFA Obs (giant foxtail (SETFA); g a.i./ha: Cpd 2 150, S-Metolachlor 1870): 20%
BIDPI Obs (common blackjack (BIDPI); 16 DAA, Cpd 2/Cpd 1 at 62 g a.i./ha): 20
BIDPI Obs (common blackjack (BIDPI); 16 DAA, Cpd 2/Cpd 1 at 125 g a.i./ha): 60
BIDPI Obs (common blackjack (BIDPI); 30 DAA, Cpd 2/Cpd 1 at 62 g a.i./ha): 20
BIDPI Obs (common blackjack (BIDPI); 30 DAA, Cpd 2/Cpd 1 at 125 g a.i./ha): 40
BIDPI Obs (common blackjack (BIDPI); 44 DAA, Cpd 2/Cpd 1 at 62 g a.i./ha): 20
BIDPI Obs (common blackjack (BIDPI); 44 DAA, Cpd 2/Cpd 1 at 125 g a.i./ha): 60
BIDPI Obs (common blackjack (BIDPI); 62 DAA, Cpd 2/Cpd 1 at 62 g a.i./ha): 0
BIDPI Obs (common blackjack (BIDPI); 62 DAA, Cpd 2/Cpd 1 at 125 g a.i./ha): 40
BIDPI Obs (common blackjack (BIDPI); 91 DAA, Cpd 2/Cpd 1 at 62 g a.i./ha): 0
BIDPI Obs (common blackjack (BIDPI); 91 DAA, Cpd 2/Cpd 1 at 125 g a.i./ha): 40
IPOGF Obs [6, 14]: 0
IPOGF Obs [6, 15]: 40
IPOGF Obs [6, 16]: 40
IPOGF Obs [6, 17]: 60
IPOGF Obs [6, 18]: 0
IPOGF Obs [6, 19]: 50
IPOGF Obs [6, 20]: 0
IPOGF Obs [6, 21]: 0
IPOGF Obs [6, 22]: 0
IPOGF Obs [6, 23]: 0
SIDRH Obs (arrowleaf sida (SIDRH); [14]): 20
SIDRH Obs (arrowleaf sida (SIDRH); [15]): 40
SIDRH Obs (arrowleaf sida (SIDRH); [16]): 40
SIDRH Obs (arrowleaf sida (SIDRH); [17]): 70
SIDRH Obs (arrowleaf sida (SIDRH); [18]): 40
SIDRH Obs (arrowleaf sida (SIDRH); [19]): 75
SIDRH Obs (arrowleaf sida (SIDRH); [20]): 0
SIDRH Obs (arrowleaf sida (SIDRH); [21]): 40
SIDRH Obs (arrowleaf sida (SIDRH); [22]): 0
SIDRH Obs (arrowleaf sida (SIDRH); [23]): 40
